Experimental findings from ChEMBL document CHEMBL5678803, “Selective blockade of TRPA1 channel attenuates pathological pain without altering noxious cold sensation or body temperature regulation” (Pain, 2011) are described below.

Data set [1] is described as follows: Toxicity in Sprague-Dawley rat assessed as increase in body temperature at 1.16 mg/kg, po measured after 480 mins by radiotelemetric analysis. The format is organism-based. Particulars: in vivo, 8 h.
Data set [2] in a line: Toxicity in Sprague-Dawley rat assessed as increase in body temperature at 3.88 mg/kg, po measured after 480 mins by radiotelemetric analysis. It is filed as organism-based. Particulars: in vivo, 8 h.
A short description of data set [3]: Toxicity in Sprague-Dawley rat assessed as effect on tail withdrawal latency to hot water immersion at 55 degreeC at 11.6 mg/kg, po by tail immersion test. It is filed as organism-based. Conditions: in vivo.
The test system of data set [4] is Rattus norvegicus. Nature of the data set: Antiallodynic activity in CCI-induced neuropathic pain Sprague-Dawley rat model assessed as attenuation of mechanical allodynia at 100 mg/kg, po administered with compound for 1 hrs and measured 10 to 14 days after surgery relative to control. Particulars: time 241-337 hrs. It is filed as functional.
Data set [5] deals with Rattus norvegicus. Kind of data set: Antiallodynic activity in spinal nerve ligation-induced neuropathic pain Sprague-Dawley rat model assessed as attenuation of mechanical allodynia at 100 mg/kg, po administered with compound for 1 hrs and measured 10 to 14 days after surgery relative to control. It is filed as functional. Conditions: time 241-337 hrs.
Data set [6] relates to Rattus norvegicus. Nature of the data set: Antiallodynic activity in CFA-induced mechanical allodynia Sprague-Dawley rat model assessed as attenuation of mechanical allodynia at 100 mg/kg, po administered with compound for 1 hrs and measured 48 hrs after CFA injection relative to control. Conditions: time 49 hrs. It is filed as functional.
Data set [7] concerns the target T1, Transient receptor potential cation channel subfamily A member 1 (Homo sapiens, UniProt O75762). Kind of data set: Antagonist activity at recombinant human TRPA1 expressed in HEK293F cells assessed as reduction in AITC-induced increase in intracellular Ca2+ level by FLIPR-based Ca2+ assay. The format is cell-based.
Data set [8] deals with Transient receptor potential cation channel subfamily A member 1 (Rattus norvegicus, UniProt Q6RI86). Kind of data set: Antagonist activity at rat TRPA1 expressed in HEK293F cells assessed as reduction in AITC-induced increase in intracellular Ca2+ level by FLIPR-based Ca2+ assay. It is filed as cell-based.
The target in data set [9] is T1, Transient receptor potential cation channel subfamily A member 1. Kind of data set: Antagonist activity at TRPA1 (unknown origin).
The species named for data set [10] is Homo sapiens. Kind of data set: Inhibition of sodium channel (unknown origin) at 10 micromol/L by radioligand binding assay relative to control. Conditions: dose 10.0 µmol/L.
The species named for data set [11] is Homo sapiens. Kind of data set: Inhibition of sigma receptor (unknown origin) at 10 micromol/L by radioligand binding assay relative to control. Conditions: dose 10.0 µmol/L.
Data set [12] addresses Cannabinoid receptor 2 (Homo sapiens) (UniProt P34972). Nature of the data set: Inhibition of CB2 receptor (unknown origin) at 10 micromol/L by radioligand binding assay relative to control. Particulars: dose 10.0 µmol/L.

pIC50: −log10 of the molar value.

T1 sequence (O75762 whole entry): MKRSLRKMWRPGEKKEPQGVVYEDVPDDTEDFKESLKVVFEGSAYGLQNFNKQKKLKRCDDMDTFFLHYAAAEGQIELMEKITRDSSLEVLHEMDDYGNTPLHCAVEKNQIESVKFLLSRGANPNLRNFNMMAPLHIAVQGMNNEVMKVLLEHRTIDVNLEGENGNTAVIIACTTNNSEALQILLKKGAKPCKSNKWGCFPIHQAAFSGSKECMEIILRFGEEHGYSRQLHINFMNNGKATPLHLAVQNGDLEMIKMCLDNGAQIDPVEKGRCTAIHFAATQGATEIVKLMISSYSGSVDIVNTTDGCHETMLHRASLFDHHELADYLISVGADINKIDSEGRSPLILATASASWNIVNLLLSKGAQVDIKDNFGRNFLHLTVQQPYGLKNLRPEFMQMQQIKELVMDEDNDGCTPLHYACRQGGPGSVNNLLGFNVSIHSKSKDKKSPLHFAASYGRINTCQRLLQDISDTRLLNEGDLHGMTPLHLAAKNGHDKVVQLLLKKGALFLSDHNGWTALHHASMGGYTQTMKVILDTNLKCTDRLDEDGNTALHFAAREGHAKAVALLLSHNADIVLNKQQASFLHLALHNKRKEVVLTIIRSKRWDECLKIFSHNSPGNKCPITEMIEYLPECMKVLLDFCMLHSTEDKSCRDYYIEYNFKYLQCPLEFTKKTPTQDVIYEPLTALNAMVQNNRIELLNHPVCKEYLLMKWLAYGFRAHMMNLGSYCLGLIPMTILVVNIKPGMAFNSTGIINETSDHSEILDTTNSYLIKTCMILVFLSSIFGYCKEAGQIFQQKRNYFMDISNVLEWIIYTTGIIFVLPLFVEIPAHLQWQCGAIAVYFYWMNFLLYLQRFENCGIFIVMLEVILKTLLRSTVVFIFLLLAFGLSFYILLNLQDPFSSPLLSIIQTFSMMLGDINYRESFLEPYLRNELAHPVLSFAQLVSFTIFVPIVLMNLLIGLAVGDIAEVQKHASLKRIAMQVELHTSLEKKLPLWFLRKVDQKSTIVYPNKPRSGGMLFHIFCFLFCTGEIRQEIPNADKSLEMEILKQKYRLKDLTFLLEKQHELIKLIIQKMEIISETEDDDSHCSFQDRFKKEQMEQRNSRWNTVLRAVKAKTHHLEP
Sequence of Transient receptor potential cation channel subfamily A member 1 (Rattus norvegicus, UniProt Q6RI86) (Q6RI86 whole entry): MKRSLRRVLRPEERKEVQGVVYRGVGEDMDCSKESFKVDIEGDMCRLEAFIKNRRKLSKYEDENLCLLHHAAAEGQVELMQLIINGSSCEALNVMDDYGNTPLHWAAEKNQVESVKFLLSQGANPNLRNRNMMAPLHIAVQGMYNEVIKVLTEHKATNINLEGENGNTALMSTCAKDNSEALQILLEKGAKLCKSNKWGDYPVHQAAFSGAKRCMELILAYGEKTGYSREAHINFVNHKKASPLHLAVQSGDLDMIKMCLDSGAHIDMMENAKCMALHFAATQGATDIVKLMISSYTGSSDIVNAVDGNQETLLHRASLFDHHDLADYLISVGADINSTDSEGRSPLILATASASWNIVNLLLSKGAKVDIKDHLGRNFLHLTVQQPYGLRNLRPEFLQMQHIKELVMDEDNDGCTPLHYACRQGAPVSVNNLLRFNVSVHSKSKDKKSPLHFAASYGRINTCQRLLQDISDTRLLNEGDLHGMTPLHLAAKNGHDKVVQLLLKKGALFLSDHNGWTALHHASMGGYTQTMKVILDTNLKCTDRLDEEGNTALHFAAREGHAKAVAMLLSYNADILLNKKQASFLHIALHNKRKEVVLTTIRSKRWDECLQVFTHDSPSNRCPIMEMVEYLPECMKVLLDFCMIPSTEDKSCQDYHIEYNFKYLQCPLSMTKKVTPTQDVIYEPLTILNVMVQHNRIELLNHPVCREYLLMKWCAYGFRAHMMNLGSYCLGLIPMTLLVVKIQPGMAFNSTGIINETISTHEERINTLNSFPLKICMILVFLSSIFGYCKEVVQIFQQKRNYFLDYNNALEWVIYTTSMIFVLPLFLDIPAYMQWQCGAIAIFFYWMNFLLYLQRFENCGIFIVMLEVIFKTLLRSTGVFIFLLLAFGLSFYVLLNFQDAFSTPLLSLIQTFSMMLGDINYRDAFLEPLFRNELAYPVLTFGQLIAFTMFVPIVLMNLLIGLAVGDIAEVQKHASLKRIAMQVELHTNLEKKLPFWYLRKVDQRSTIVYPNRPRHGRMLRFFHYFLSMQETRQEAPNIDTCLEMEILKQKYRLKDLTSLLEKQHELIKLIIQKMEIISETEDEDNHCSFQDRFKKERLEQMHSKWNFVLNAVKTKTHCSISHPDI
Sequence of Cannabinoid receptor 2 (Homo sapiens) (P34972 whole entry): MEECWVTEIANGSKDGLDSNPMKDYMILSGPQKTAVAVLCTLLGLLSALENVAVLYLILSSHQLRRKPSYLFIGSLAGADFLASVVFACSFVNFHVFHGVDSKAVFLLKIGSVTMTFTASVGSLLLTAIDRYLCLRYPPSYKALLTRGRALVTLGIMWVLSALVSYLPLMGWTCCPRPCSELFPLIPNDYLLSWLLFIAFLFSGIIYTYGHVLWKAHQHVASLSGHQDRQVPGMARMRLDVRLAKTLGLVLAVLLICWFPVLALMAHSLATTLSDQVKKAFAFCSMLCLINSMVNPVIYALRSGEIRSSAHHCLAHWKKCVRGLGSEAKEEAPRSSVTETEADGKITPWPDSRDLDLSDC

Consider `Cc1nc(Nc2cccc3c2C[C@H](O)CC3)oc1-c1ccc(C(F)(F)F)cc1`, for which the values for the deltaT in data set [1] and in data set [2] were 0.6 °C and 0.9 °C, respectively. The Activity result in [3] is “Toxic”.

With `NCC1(CC(=O)O)CCCCC1` [GABAPENTIN], the Activity in [4], in data set [5] and in [6] was 50% in each case.

As a reminder, the pIC50 is the negative decadic logarithm of the IC50, by convention in mol/L. Consider `CC(=N/O)/C(C)=C/c1ccc(Cl)cc1`, for which the pIC50 in data set [7] was 5.16; in data set [8] it was 5.06; in data set [9], 5.51.

By inhibition is commonly meant how much of the control response was suppressed. Turning to `CC(C)c1ccc(NC(=O)Cn2cnc3c2c(=O)n(C)c(=O)n3C)cc1`, the pIC50 in [7] and in [8] was 5.16 throughout. Moreover, the inhibition in data set [10] was determined as 40%; in [11], 37%; in data set [12], 33%.
